Here are results for 19 compounds from US12624018B1, “Inhibitors of RIPK2 and medical uses thereof” (Odyssey Therapeutics, Inc., priority 2022, dated 2026).

Where only a bound is given, the exact number is not on record here.

One test concerns human NOD2 signaling. The experiment in a line: Inhibition of human NOD2 signaling in HEK-Blue-hNOD2 cells (L18-MDP stimulated, SEAP reporter). It is filed as cell-based. To be noted: Homo sapiens, HEK-Blue hNOD2, HEK-Blue-hNOD2 cells, NOD2 ligand stimulation, SEAP reporter; read-out: hNOD2 IC50. An outline of the steps: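 Read-out is SEAP absorbance at 620 nm after 3 h QUANTI-Blue development of supernatant from HEK293 cells carrying NOD2 and a SEAP reporter (12500/well). Cells got compound (10 points, 3-fold dilutions) and 0.5 ng/mL L18-MDP for 24 h at 37 °C; percent inhibition vs stimulated/unstimulated controls, 4-parameter IC50.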

In test [1] the target is T1, RIPK2 and XIAP protein-protein interaction (Homo sapiens, UniProt O43353).
T1 construct: the N-terminus of full-length RIPK2 was appended with the HaloTag fusion protein; expressed in transfected cells; host or cells: HEK293T
The experiment in a line: Inhibition of the interaction of RIPK2 with XIAP (NanoBRET in HEK293T cells). Type of test: cell-based. The conditions noted are these: RIPK2 HaloTag / XIAP NanoLuc, read-out: NanoBRET Scaffolding IC50. The text has this: An assay measuring the RIPK2 and XIAP protein-protein interaction was generated using the NanoBRET protein:protein interaction system (Promega) which measures the energy transfer from a bioluminescent protein donor (NanoLuc fusion protein) to a fluorescent protein acceptor (Halotag fusion protein). In this assay, the C-terminus of full-length XIAP was appended with the NanoLuc fusion protein and the N-terminus of full-length RIPK2 was appended with the HaloTag fusion protein. Assay medium consisted of Opti-MEM I reduced serum medium with no phenol red plus 4% heat inactivated FBS. Transfection reagents were combined in a microfuge tube as follows: 400 μL of assay medium, 8 μL of vector with N-terminus of RIPK2 HaloTag fusion protein (vector concentration at 1 μg/μL), 0.8 μL of vector with C-terminus of XIAP NanoLuc fusion protein (vector concentration at 1 μg/μL), and 24 μL of FuGENE HD transfection reagent (Promega, catalogue number E2312). […] Test compounds were prepared into a 10 mM DMSO solution and were serially diluted into 10 points using a 3-fold dilution in a 384 well plate using a TECAN EV0200.
Method: HEK293T cells were transfected with the RIPK2 HaloTag fusion and XIAP NanoLuc fusion vectors in suspension. […] Transfection reagents were pre-mixed and incubated at room temperature for 30 minutes. Then the total transfection reagent mixture was added dropwise to the 16 mL cell suspension and mixed gently. 40 μL of the cells and transfection reagent suspension was plated into a white 384 well plate and incubated at 37° C. in a CO2 incubator for 24 hours. […] Lastly, a 3× solution of NanoBRET Nano-Glo substrate in Opti-MEM I reduced serum media (no phenol red; 20 μL total volume) was added to each well and incubated for 2-3 minutes at room temperature. The plate was then measured using 460 nm filter (donor emission) and 618 nm filter (acceptor emission) in an EnVision multimode plate reader (PerkinElmer). The NanoBRET ratio values were determined by dividing the acceptor emission value by the donor emission value for each sample.
(In general: In BRET a luciferase serves as donor, and the signal depends on an acceptor being close.)

The target of another test is T2, RIPK2 enzyme (Homo sapiens, UniProt O43353).
T2 construct: purchased Carna 09-128
The experiment in a line: RIPK2 inhibition (ADP-Glo Kinase Assay). Type of test: biochemical. To be noted: RIPK2 5 nM, ATP 150 μM, MBP substrate, read-out: RIPK2 IC50. In a few lines:
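Swine MBP substrate; compound and 5 nM RIPK2 first mixed for 30 min at room temperature; buffer pH 7.5 HEPES 50 mM with 10 mM MgCl2, 2 mM DTT, 1 mM EGTA, Brij-35, BSA.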
(In general: ADP-Glo first removes unused ATP, then detects ADP through luciferase.)

T2 sequence (O43353 1-299 limits assumed): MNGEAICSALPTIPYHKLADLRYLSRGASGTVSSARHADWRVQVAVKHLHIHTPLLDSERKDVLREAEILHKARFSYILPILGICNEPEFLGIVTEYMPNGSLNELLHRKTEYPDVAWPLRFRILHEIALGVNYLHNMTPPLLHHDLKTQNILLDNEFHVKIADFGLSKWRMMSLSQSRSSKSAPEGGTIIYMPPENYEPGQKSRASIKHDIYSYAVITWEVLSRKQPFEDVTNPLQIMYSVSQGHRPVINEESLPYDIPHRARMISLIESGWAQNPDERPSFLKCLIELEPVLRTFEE
T1 sequence (O43353 whole entry, the tested form may be a part): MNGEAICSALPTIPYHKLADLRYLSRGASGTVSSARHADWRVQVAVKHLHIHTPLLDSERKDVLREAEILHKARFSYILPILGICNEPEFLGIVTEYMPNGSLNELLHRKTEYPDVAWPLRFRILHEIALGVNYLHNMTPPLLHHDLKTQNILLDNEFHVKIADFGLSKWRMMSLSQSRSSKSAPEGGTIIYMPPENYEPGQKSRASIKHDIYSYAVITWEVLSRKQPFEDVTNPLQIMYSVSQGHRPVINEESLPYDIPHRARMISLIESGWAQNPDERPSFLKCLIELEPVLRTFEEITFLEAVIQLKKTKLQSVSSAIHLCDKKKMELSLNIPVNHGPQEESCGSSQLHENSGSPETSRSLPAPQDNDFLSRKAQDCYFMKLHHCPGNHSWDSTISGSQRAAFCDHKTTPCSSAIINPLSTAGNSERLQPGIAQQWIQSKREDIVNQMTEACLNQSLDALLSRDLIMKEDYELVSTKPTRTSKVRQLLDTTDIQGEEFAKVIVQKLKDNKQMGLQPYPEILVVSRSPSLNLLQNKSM

For the compound `CNCc1nnc(-c2ccc3nccc(Oc4cc(F)c(CC(=O)Nc5cnn(C(C)(C)C)c5)cc4C)c3c2)o1` [Compound 481, N-(1-(tert-butyl)-1H-pyrazol-4-yl)-2-(2-fluoro-5-methyl-4-((6-(5-((methylamino)methyl)-1,3,4-oxadiazol-2-yl)quinolin-4-yl)oxy)phenyl)acetamide], the IC50 in the test with human NOD2 signaling is 4.2 nM; in test [1] it was 4.5 nM; on RIPK2 enzyme, < 2.5 nM.

Regarding `Cc1nnc(-c2ccc3nccc(Oc4cc(F)c(CC(=O)Nc5cnn(C(C)(C)C)c5)cc4C)c3c2)o1` [Compound 482, N-(1-(tert-butyl)-1H-pyrazol-4-yl)-2-(2-fluoro-5-methyl-4-((6-(5-methyl-1,3,4-oxadiazol-2-yl)quinolin-4-yl)oxy)phenyl)acetamide], the figures for the IC50 (in the test with human NOD2 signaling; in test [1]; at RIPK2 enzyme) were 0.3 nM, 4.6 nM and < 2.5 nM, respectively.

For `Cc1cc(CC(=O)Nc2cnn(C(C)(C)C)c2)ccc1Oc1ccnc2ccc(C(N)=O)cc12` [Compound 487, 4-(4-(2-((1-(tert-butyl)-1H-pyrazol-4-yl)amino)-2-oxoethyl)-2-methylphenoxy)quinoline-6-carboxamide], the figures for the IC50 (in the test on human NOD2 signaling; in test [1]; at RIPK2 enzyme) were 0.3 nM, 47.5 nM and < 2.5 nM, respectively.

With `CNC(=O)c1ccc2nccc(Oc3ccc(CC(=O)Nc4cnn(C(C)(C)C)c4)cc3C)c2c1` [Compound 488, 4-(4-(2-((1-(tert-butyl)-1H-pyrazol-4-yl)amino)-2-oxoethyl)-2-methylphenoxy)-N-methylquinoline-6-carboxamide], the IC50 with human NOD2 signaling is 0.2 nM; in test [1], 3.4 nM; on RIPK2 enzyme, < 2.5 nM.

In the case of `Cc1cc(CC(=O)Nc2cnn(C(C)(C)C)c2)ccc1Oc1ccnc2cc(F)c(C(N)=O)cc12` [Compound 489, 4-(4-(2-((1-(tert-butyl)-1H-pyrazol-4-yl)amino)-2-oxoethyl)-2-methylphenoxy)-7-fluoroquinoline-6-carboxamide], the figures for the IC50 (in the test with human NOD2 signaling; in test [1]; on RIPK2 enzyme) were 0.1 nM, 7.1 nM and < 2.5 nM, respectively.

Turning to `CNC(=O)c1cc2c(Oc3ccc(CC(=O)Nc4cnn(C(C)(C)C)c4)cc3C)ccnc2cc1F` [Compound 490, 4-(4-(2-((1-(tert-butyl)-1H-pyrazol-4-yl)amino)-2-oxoethyl)-2-methylphenoxy)-7-fluoro-N-methylquinoline-6-carboxamide], the values for the IC50 (in the test with human NOD2 signaling; in test [1]; on RIPK2 enzyme) were 0.1 nM, 24.2 nM and < 2.5 nM, respectively.

In the case of `[2H]C([2H])([2H])NC(=O)c1cc2c(Oc3cc(F)c(CC(=O)Nc4cnn(C(C)(C)C)c4)cc3C)ccnc2cc1F` [Compound 494, 4-(4-(2-((1-(tert-butyl)-1H-pyrazol-4-yl)amino)-2-oxoethyl)-5-fluoro-2-methylphenoxy)-7-fluoro-N-(methyl-d3)quinoline-6-carboxamide], the IC50 in the test with human NOD2 signaling was 0.4 nM; in test [1] it was 20.5 nM; at RIPK2 enzyme, < 2.5 nM.

Turning to `Cc1cc(CC(=O)Nc2cnn(C(C)(C)C)c2)ccc1Oc1ccnc2cc(C)c(S(C)(=O)=O)cc12` [Compound 495, N-(1-(tert-butyl)-1H-pyrazol-4-yl)-2-(3-methyl-4-((7-methyl-6-(methylsulfonyl)quinolin-4-yl)oxy)phenyl)acetamide], the IC50 with human NOD2 signaling was 0.5 nM; in test [1], 70.8 nM; at RIPK2 enzyme, < 2.5 nM.

Take `Cc1cc(CC(=O)Nc2cnn(C(C)(C)C)c2)c(F)cc1Oc1ccnc2cc(C)c(S(C)(=O)=O)cc12` [Compound 496, N-(1-(tert-butyl)-1H-pyrazol-4-yl)-2-(2-fluoro-5-methyl-4-((7-methyl-6-(methylsulfonyl)quinolin-4-yl)oxy)phenyl)acetamide]: the IC50 in the test with human NOD2 signaling was 0.5 nM; in test [1] it was 127 nM; at RIPK2 enzyme, < 2.5 nM.

Turning to `CC(C)(C)n1cc(NC(=O)Cc2cc(Cl)c(Oc3ccnc4ccc(C(N)=O)cc34)cc2F)cn1` [Compound 497, 4-(4-(2-((1-(tert-butyl)-1H-pyrazol-4-yl)amino)-2-oxoethyl)-2-chloro-5-fluorophenoxy)quinoline-6-carboxamide], the IC50 in the test with human NOD2 signaling is 0.6 nM; in test [1] it was 10.8 nM; on RIPK2 enzyme it was < 2.5 nM.

Consider `CNC(=O)c1ccc2nccc(Oc3cc(F)c(CC(=O)Nc4cnn(C(C)(C)C)c4)cc3Cl)c2c1` [Compound 498, 4-(4-(2-((1-(tert-butyl)-1H-pyrazol-4-yl)amino)-2-oxoethyl)-2-chloro-5-fluorophenoxy)-N-methylquinoline-6-carboxamide], for which the IC50 with human NOD2 signaling is 0.4 nM; in test [1], 13.7 nM; on RIPK2 enzyme, < 2.5 nM.

Take `Cc1cc(CC(=O)Nc2cnn(C34CC(C3)C4)c2)ccc1Oc1ccnc2ccc(C(N)=O)cc12` [Compound 499, 4-(4-(2-((1-(bicyclo[1.1.1]pentan-1-yl)-1H-pyrazol-4-yl)amino)-2-oxoethyl)-2-methylphenoxy)quinoline-6-carboxamide]: the IC50 with human NOD2 signaling is 1.1 nM; in test [1], 21.9 nM; on RIPK2 enzyme it was < 2.5 nM.

`CNC(=O)c1ccc2nccc(Oc3ccc(CC(=O)Nc4cnn(C56CC(C5)C6)c4)cc3C)c2c1` [Compound 500, 4-(4-(2-((1-(bicyclo[1.1.1]pentan-1-yl)-1H-pyrazol-4-yl)amino)-2-oxoethyl)-2-methylphenoxy)-N-methylquinoline-6-carboxamide]: the IC50 in the test with human NOD2 signaling was 0.4 nM; in test [1] it was 7.4 nM; at RIPK2 enzyme, < 2.5 nM.

`Cc1cc(CC(=O)Nc2cnn(C34CC(C3)C4)c2)c(F)cc1Oc1ccnc2ccc(C(N)=O)cc12` [Compound 501, 4-(4-(2-((1-(bicyclo[1.1.1]pentan-1-yl)-1H-pyrazol-4-yl)amino)-2-oxoethyl)-5-fluoro-2-methylphenoxy)quinoline-6-carboxamide]: the IC50 is 2.2 nM with human NOD2 signaling, 62.9 nM in test [1] and < 2.5 nM at RIPK2 enzyme.

As to `CNC(=O)c1ccc2nccc(Oc3cc(F)c(CC(=O)Nc4cnn(C56CC(C5)C6)c4)cc3C)c2c1` [Compound 502, 4-(4-(2-((1-(bicyclo[1.1.1]pentan-1-yl)-1H-pyrazol-4-yl)amino)-2-oxoethyl)-5-fluoro-2-methylphenoxy)-N-methylquinoline-6-carboxamide], the IC50 in the test with human NOD2 signaling is 0.8 nM; in test [1], 17.5 nM; on RIPK2 enzyme, < 2.5 nM.

As to `Cc1c(Oc2ccnc3ccc(C(N)=O)cc23)cc(F)c(CC(=O)Nc2cnn(C(C)(C)C)c2)c1F` [Compound 503, 4-(4-(2-((1-(tert-butyl)-1H-pyrazol-4-yl)amino)-2-oxoethyl)-3,5-difluoro-2-methylphenoxy)quinoline-6-carboxamide], the IC50 is 0.2 nM with human NOD2 signaling, 63.1 nM in test [1] and < 2.5 nM at RIPK2 enzyme.

On to `CNC(=O)c1ccc2nccc(Oc3cc(F)c(CC(=O)Nc4cnn(C(C)(C)C)c4)c(F)c3C)c2c1` [Compound 504, 4-(4-(2-((1-(tert-butyl)-1H-pyrazol-4-yl)amino)-2-oxoethyl)-3,5-difluoro-2-methylphenoxy)-N-methylquinoline-6-carboxamide], for which the figures for the IC50 (in the test with human NOD2 signaling; in test [1]; on RIPK2 enzyme) were 0.2 nM, 3.4 nM and < 2.5 nM, respectively.

As to `Cc1cc(CC(=O)Nc2cnn(C(C)(C)C)c2)cc(C)c1Oc1ccnc2ccc(C(N)=O)cc12` [Compound 505, 4-(4-(2-((1-(tert-butyl)-1H-pyrazol-4-yl)amino)-2-oxoethyl)-2,6-dimethylphenoxy)quinoline-6-carboxamide], the IC50 in the test on human NOD2 signaling was 3.5 nM; in test [1] it was 128 nM; at RIPK2 enzyme it was < 2.5 nM.

Regarding `CNC(=O)c1ccc2nccc(Oc3c(C)cc(CC(=O)Nc4cnn(C(C)(C)C)c4)cc3C)c2c1` [Compound 506, 4-(4-(2-((1-(tert-butyl)-1H-pyrazol-4-yl)amino)-2-oxoethyl)-2,6-dimethylphenoxy)-N-methylquinoline-6-carboxamide], the IC50 was 2.2 nM with human NOD2 signaling, 73.6 nM in test [1] and < 2.5 nM on RIPK2 enzyme.
